Assays:
[1] = biological target: T1, MT1-MMP sandwich EIA (solid-phase antibody 222-2D12, labeled antibody 222-1D8) (Homo sapiens, UniProt P50281); assay: Specificity test: cross reactivity on MT1-MMP sandwich EIA; assay type: binding; conditions: concentration 1 μg/mL; blank 0.027
T1 construct: 488 amino acid residues of Δ MT1-MMP (G^48 to G^53) which lacks the signal peptide and part of the propeptide region; made in house; host or cells: E. coli
Procedure: Monoclonal antibodies (e.g., 333-2D12 (IgG)) were dissolved in 0.1 M phosphate buffer, pH 7.0 to a concentration of 25 μg/mL. The monoclonal antibody solution was added to each well of a 96-well microwell (Maxisorp; Nunc-Immuno Module) at 100 μL per well and allowed to stand at 4° C. for 24 hrs. […] The solid-phase antibodies were preserved at 4° C.
Standard antigens or samples to be assayed were dispensed into a 96-well vinyl plate at 25 μL each. To each well was added a dilution buffer in aliquots of 100 μL, followed by mixing. An aliquot (100 μL) of the resultant mixture was taken out, dispensed into an antibody-solid phased plate from which a blocking solution was removed by washing. The plate was then allowed to stand at 4° C. for 16 hours.
[…] antibody 222-1D8 (Fab′-HRP) was diluted with a blocking solution to a concentration of 0.4 μg/mL. The reaction solution was removed from the antibody-solid phased plate where the primary reaction was completed. The plate was washed with a washing liquid three times and an aliquot (100 μL) of the labeled antibody solution was added to each well. The plate was allowed to stand at room temperature for 1 hour.
After completion of the reaction, the labeled antibody solution was removed. The plate was then washed with a washing liquid three times, and a TMB solution (CALBIOCHEM) was added to each well at 100 μL. The mixture was allowed to react at room temperature for 20 minute. The reaction was stopped with the addition of 2 N sulfuric acid at 100 μL per well. The reaction mixture was measured for A450 with a microplate reader (MPR-A4; Tosoh).
Each of MMP-1, -2, -3, -4, -7, -8, -9, -13, -19 and -20 was prepared to give a concentration of 1 μg/mL, and subjected to MT1-MMP sandwich EIA. A450 was measured. When MT1-MMP was subjected to sandwich EIA at 0.16 μg/mL, the absorbance was 2.206. However, when the above MMPs were subjected, their absorbances were only an extent of 0.024 to 0.071. Accordingly, it has been verified that MT1-MMP sandwich EIA is specifically reactive with MT1-MMP.

[2] = system: CaSki (cervical epidermoid cancer); assay: MT1-MMP sandwich EIA of cultured cell line with Con A; assay type: cell-based, Human; conditions: Con A-containing serum-free medium 48 hours
Procedure: (§1) Searches for Human MT1-MMP-producing culture cell lines were carried out by means of MT1-MMP sandwich EIA. With regard to the cell lines, there were used Burkitt's lymphoma (Daudi, Namalwa, Raji), acute lymphoblastic leukemia (T-cells) (MOLT-4), chronic myelogenous leukemia (K-562), promyelocytic leukemia (HL-60), fibrosarcoma (HT-1080), breast cancer (MDA-MB-231, SK-BR-3, MCF 7), lung cancer (A 549), rectal adenocarcinoma (SW 837), osteosarcoma ([…]), lingual squamous cell carcinoma (SSC-25), uterocervical cancer (HeLa), cervical epidermoid cancer (CaSki), prostatic cancer (PC-3) and malignant melanoma (A-375) cells. Each of the cancer cell lines was incubated in a plate of 10 cm diameter until being confluent, the medium was exchanged with serum-free medium or Con A-containing serum-free medium and, after 48 hours, the culture supernatant and the cells were recovered. The cells were ultrasonically disrupted in 0.5 mL of dilution buffer and centrifuged. The resulting supernatant was subjected to EIA as a cell extract fraction. The culture supernatant was subjected to EIA as it was.

[3] = system: SW 837 (rectal adenocarcinoma); assay: as above; assay type: cell-based, Human; conditions: SW 837, Con A-containing serum-free medium 48 hours
Procedure: as §1

[4] = system: SSC-25 (lingual squamous cell carcinoma); assay: as above; assay type: cell-based, Human; conditions: SSC-25, Con A-containing serum-free medium 48 hours
Procedure: as §1

MG-63 (osteosarcoma) = assay: as above; assay type: cell-based, Human; conditions: MG-63, Con A-containing serum-free medium 48 hours
Procedure: as §1

[5] = system: MDA-MB-231 (breast cancer); assay: as above; assay type: cell-based, Human; conditions: MDA-MB-231, Con A-containing serum-free medium 48 hours
Procedure: as §1

HT-1080 (fibrosarcoma) = assay: as above; assay type: cell-based, Human; conditions: HT-1080, Con A-containing serum-free medium 48 hours
Procedure: as §1

For “MMP-3: matrix metalloproteinase subjected to MT1-MMP sandwich EIA for cross reactivity”, the A450 [1] was 0.027.
For “MMP-7: matrix metalloproteinase subjected to MT1-MMP sandwich EIA for cross reactivity”, the A450 [1] was 0.026.
“MMP-8: matrix metalloproteinase subjected to MT1-MMP sandwich EIA for cross reactivity” gave an A450 [1] of 0.028.
In the case of concanavalin A [Con A], the “MT1-MMP in Culture Supernatant, +Con A” value ([2]; −Con A 1.7) was 25.1, the “MT1-MMP in Cell Extract Fraction, +Con A” value ([2]; −Con A 9.0) was 9.5 and the “MT1-MMP in Culture Supernatant, +Con A” value ([3]; −Con A 1.8) was 14.2. For the same substance, the “MT1-MMP in Cell Extract Fraction, +Con A” value ([3]; −Con A 21.5) was 30.7, the “MT1-MMP in Culture Supernatant, +Con A” value ([4]; −Con A 2.8) was 43.1 and the “MT1-MMP in Cell Extract Fraction, +Con A” value ([4]; −Con A 5.9) was 19.1. For the same substance, the “MT1-MMP in Cell Extract Fraction, +Con A” value (MG-63 (osteosarcoma); −Con A 0.7) was 0.0, the “MT1-MMP in Culture Supernatant, +Con A” value (MG-63 (osteosarcoma); −Con A 1.6) was 20.3 and the “MT1-MMP in Culture Supernatant, +Con A” value ([5]; −Con A 7.6) was 48.8. The “MT1-MMP in Cell Extract Fraction, +Con A” value ([5]; −Con A 42.8) was 85.0, the “MT1-MMP in Culture Supernatant, +Con A” value (HT-1080 (fibrosarcoma); −Con A 10.1) was 80.3 and the “MT1-MMP in Cell Extract Fraction, +Con A” value (HT-1080 (fibrosarcoma); −Con A 45.9) was 42.6.
